Several values for one entry are separate records, joined by “and”; a condition that tells them apart may be missing. Identical values can stand only once. Inconclusive results and toxic doses are left out. How the source made its calls: active means survival T/C of 150% or more; inactive means T/C below 125% in these data.
Tested on: P388 leukemia ip, CD2F1 mice, survival T/C
Experiment: NCI In Vivo Anticancer Drug Screen. Data for tumor model P388 Leukemia (intraperitoneal) in CD2F1 (CDF1) mice
Details: endpoint: median survival time, higher = longer survival
In short: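 Mice carrying the transplanted tumor received test compound or vehicle. Survival was recorded in each group, and the value is the treated-group measurement divided by that of the vehicle-treated control group.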

[1] = dose: 200.0 mg/kg/injection, schedule: Q01DX009 (ip), vehicle: Klucel (hydroxypropylcellulose) (HPC)
[2] = dose: 60.0 mg/kg/injection, schedule: Q01DX005 (ip), vehicle: saline with Tween-80
[3] = dose: 120.0 mg/kg/injection, schedule: Q01DX005 (ip), vehicle: saline with Tween-80
[4] = dose: 240.0 mg/kg/injection, schedule: Q01DX005 (ip), vehicle: saline with Tween-80

Measured: T/C

O=C(O)CCC(CS)C(=O)O (stereo unspecified)
inactive: dose: 0.5 mg/kg/injection, schedule: Q01DX005 (ip), vehicle: saline 100 % of control | dose: 1.0 mg/kg/injection, schedule: Q01DX005 (ip), vehicle: saline 100 % of control | dose: 2.0 mg/kg/injection, schedule: Q01DX005 (ip), vehicle: saline 100 % of control | dose: 4.0 mg/kg/injection, schedule: Q01DX005 (ip), vehicle: saline 98 % of control | dose: 8.0 mg/kg/injection, schedule: Q01DX005 (ip), vehicle: saline 98 % of control | dose: 16.0 mg/kg/injection, schedule: Q01DX005 (ip), vehicle: saline 112 % of control | dose: 32.0 mg/kg/injection, schedule: Q01DX005 (ip), vehicle: saline 100 % of control | dose: 64.0 mg/kg/injection, schedule: Q01DX005 (ip), vehicle: saline 96 % of control | dose: 128.0 mg/kg/injection, schedule: Q01DX005 (ip), vehicle: saline 89 % of control

CSc1nc(N)c2cnn(Cc3ccccc3)c2n1
inactive: dose: 100.0 mg/kg/injection, schedule: Q01DX001 (ip), vehicle: saline with Tween-80 102 % of control | dose: 200.0 mg/kg/injection, schedule: Q01DX001 (ip), vehicle: saline with Tween-80 100 % of control | dose: 400.0 mg/kg/injection, schedule: Q01DX001 (ip), vehicle: saline with Tween-80 94 % of control

COc1ccc2c(c1)c(=O)c(C(=O)O)cn2CCCOc1ccc([N+](=O)[O-])cc1
inactive: dose: 60.0 mg/kg/injection, schedule: Q01DX005 (ip), vehicle: Klucel (hydroxypropylcellulose) (HPC) 88 % of control | dose: 120.0 mg/kg/injection, schedule: Q01DX005 (ip), vehicle: Klucel (hydroxypropylcellulose) (HPC) 93 % of control | dose: 240.0 mg/kg/injection, schedule: Q01DX005 (ip), vehicle: Klucel (hydroxypropylcellulose) (HPC) 89 % of control

C=C1C2CC[C@@H]3C45C=NC[C@@](C)(CCC4)[C@@H]5CCC3(C2)[C@@H]1OC(C)=O
inactive: dose: 4.0 mg/kg/injection, schedule: Q01DX009 (ip), vehicle: Klucel (hydroxypropylcellulose) (HPC) 94 % of control | dose: 8.0 mg/kg/injection, schedule: Q01DX009 (ip), vehicle: Klucel (hydroxypropylcellulose) (HPC) 94 % of control | dose: 16.0 mg/kg/injection, schedule: Q01DX009 (ip), vehicle: Klucel (hydroxypropylcellulose) (HPC) 95 % of control | dose: 32.0 mg/kg/injection, schedule: Q01DX009 (ip), vehicle: Klucel (hydroxypropylcellulose) (HPC) 96 % of control

CCCCCCCCCC1(O)OC(=O)C(C)=C1C (stereo unspecified)
inactive: dose: 12.5 mg/kg/injection, schedule: Q04DX003 (ip), vehicle: saline with Tween-80 115 % of control | dose: 25.0 mg/kg/injection, schedule: Q04DX003 (ip), vehicle: saline with Tween-80 100 % of control | dose: 50.0 mg/kg/injection, schedule: Q04DX003 (ip), vehicle: saline with Tween-80 102 % of control

Cc1noc(-c2ccc([N+](=O)[O-])o2)n1
inactive: dose: 130.0 mg/kg/injection, schedule: Q01DX009 (ip), vehicle: Klucel (hydroxypropylcellulose) (HPC) 100 % of control | [1] 104 % of control

S=c1nc[nH]c2c1ncn2C1CCCCO1 (stereo unspecified)
inactive: dose: 15.0 mg/kg/injection, schedule: Q01DX009 (ip), vehicle: saline with Tween-80 86 % of control | dose: 30.0 mg/kg/injection, schedule: Q01DX009 (ip), vehicle: saline with Tween-80 104 % of control | dose: 60.0 mg/kg/injection, schedule: Q01DX009 (ip), vehicle: saline with Tween-80 113 % of control | dose: 62.5 mg/kg/injection, schedule: Q01DX009 (ip), vehicle: Klucel (hydroxypropylcellulose) (HPC) 86 % of control | dose: 100.0 mg/kg/injection, schedule: Q01DX009 (ip), vehicle: saline with Tween-80 118 % of control | dose: 100.0 mg/kg/injection, schedule: Q04DX003 (ip), vehicle: saline with Tween-80 91 % of control | dose: 120.0 mg/kg/injection, schedule: Q01DX009 (ip), vehicle: saline with Tween-80 108 % of control | dose: 125.0 mg/kg/injection, schedule: Q01DX009 (ip), vehicle: Klucel (hydroxypropylcellulose) (HPC) 109 % of control | dose: 200.0 mg/kg/injection, schedule: Q01DX009 (ip), vehicle: saline with Tween-80 104 % of control | dose: 200.0 mg/kg/injection, schedule: Q04DX003 (ip), vehicle: saline with Tween-80 108 % of control | dose: 250.0 mg/kg/injection, schedule: Q01DX009 (ip), vehicle: Klucel (hydroxypropylcellulose) (HPC) 90 % of control | dose: 400.0 mg/kg/injection, schedule: Q04DX003 (ip), vehicle: saline with Tween-80 112 % of control

Nc1ncnc(N)c1NC(=O)c1cc(Cl)c(OCc2ccccc2)c(Cl)c1
inactive: [2] 101 % of control | [3] 95 % of control | [4] 94 % of control

CC1(O)COC1(c1ccccc1)c1ccccc1 (stereo unspecified)
inactive: [2] 93 % of control | [3] 96 % of control | [4] 93 % of control

CC(=O)OC1CCC2C(=CCC3C2(C)C(=O)CC2(C)C(C4(C)OC(C(C)C)=CC4=O)C(O)CC32C)C1(C)C (stereo unspecified)
inactive: dose: 9.63 mg/kg/injection, schedule: Q01DX005 (ip), vehicle: saline + Tween-80 + alcohol 111 % of control | dose: 19.25 mg/kg/injection, schedule: Q01DX005 (ip), vehicle: saline + Tween-80 + alcohol 111 % of control | dose: 38.5 mg/kg/injection, schedule: Q01DX005 (ip), vehicle: saline + Tween-80 + alcohol 106 % of control | dose: 77.0 mg/kg/injection, schedule: Q01DX005 (ip), vehicle: saline + Tween-80 + alcohol 97 % of control

CC1C(=O)C23CC1CCC2C12COC(O)C1C(C)(C)C(O)CC2OC3=O (stereo unspecified)
inactive: dose: 12.5 mg/kg/injection, schedule: Q01DX005 (ip), vehicle: Klucel (hydroxypropylcellulose) (HPC) 100 % of control | dose: 25.0 mg/kg/injection, schedule: Q01DX005 (ip), vehicle: Klucel (hydroxypropylcellulose) (HPC) 94 % of control | dose: 50.0 mg/kg/injection, schedule: Q01DX005 (ip), vehicle: Klucel (hydroxypropylcellulose) (HPC) 100 % of control | dose: 61.5 mg/kg/injection, schedule: Q01DX005 (ip), vehicle: Klucel (hydroxypropylcellulose) (HPC) 96 % of control | dose: 100.0 mg/kg/injection, schedule: Q01DX005 (ip), vehicle: Klucel (hydroxypropylcellulose) (HPC) 102 % of control | dose: 123.0 mg/kg/injection, schedule: Q01DX005 (ip), vehicle: Klucel (hydroxypropylcellulose) (HPC) 106 % of control | dose: 246.0 mg/kg/injection, schedule: Q01DX005 (ip), vehicle: Klucel (hydroxypropylcellulose) (HPC) 98 % of control

CC(C)CC(NC(=O)OC(C)(C)C)C(=O)CBr (stereo unspecified)
inactive: dose: 12.5 mg/kg/injection, schedule: Q01DX001 (ip), vehicle: saline with Tween-80 105 % of control | dose: 25.0 mg/kg/injection, schedule: Q01DX001 (ip), vehicle: saline with Tween-80 105 % of control | dose: 50.0 mg/kg/injection, schedule: Q01DX001 (ip), vehicle: saline with Tween-80 96 % of control

O=C(N/C(=C/c1ccccc1)C(=O)N1CCN(C(=O)/C(=C\c2ccccc2)NC(=O)c2ccccc2)CC1)c1ccccc1
inactive: dose: 50.0 mg/kg/injection, schedule: Q01DX005 (ip), vehicle: saline with Tween-80 93 % of control | dose: 100.0 mg/kg/injection, schedule: Q01DX005 (ip), vehicle: saline with Tween-80 92 % of control | dose: 200.0 mg/kg/injection, schedule: Q01DX005 (ip), vehicle: saline with Tween-80 93 % of control

CN1CCOc2c1cnn(CCO)c2=O
inactive: [2] 108 % of control | [3] 108 % of control | [4] 102 % of control

O=C(NNC(=O)C(Cl)Cl)c1ccccn1
inactive: dose: 50.0 mg/kg/injection, schedule: Q01DX009 (ip), vehicle: Klucel (hydroxypropylcellulose) (HPC) 99 % of control | dose: 100.0 mg/kg/injection, schedule: Q01DX009 (ip), vehicle: Klucel (hydroxypropylcellulose) (HPC) 101 % of control | [1] 109 % of control

CC(=O)NCCc1nc(-c2nc(C(=O)NCCCN)cs2)cs1
inactive: dose: 12.5 mg/kg/injection, schedule: Q01DX009 (ip), vehicle: water 93 % of control | dose: 25.0 mg/kg/injection, schedule: Q01DX009 (ip), vehicle: water 98 % of control | dose: 50.0 mg/kg/injection, schedule: Q01DX009 (ip), vehicle: water 108 % of control | dose: 100.0 mg/kg/injection, schedule: Q01DX009 (ip), vehicle: water 99 % of control | dose: 200.0 mg/kg/injection, schedule: Q01DX009 (ip), vehicle: water 98 % of control

CN=NN/C1=C/CCCCCC1
inactive: dose: 15.0 mg/kg/injection, schedule: Q01DX005 (ip), vehicle: Klucel + Tween-80 105 % of control | dose: 30.0 mg/kg/injection, schedule: Q01DX005 (ip), vehicle: Klucel + Tween-80 113 % of control | dose: 60.0 mg/kg/injection, schedule: Q01DX005 (ip), vehicle: Klucel + Tween-80 111 % of control and 117 % of control

From PubChem BioAssay AID330 (DTP/NCI, 2004)
